In PMC9260974 (BMC Pharmacology & Toxicology, 2022):

Legend:
clinical = conditions: human, in vivo
[1] = in vivo; cited from earlier work
[2] = Single-dose two-period crossover bioequivalence study, fasting: plasma pharmacokinetics of lisinopril and amlodipine (LC-MS/MS, NCA); conditions: for concentration at 0 h / concentration at 1 h / concentration at 2 h / concentration at 3 h / concentration at 4 h / concentration at 5 h / concentration at 6 h / concentration at 7 h / concentration at 8 h / concentration at 9 h / concentration at 10 h / concentration at 11 h / concentration at 12 h / concentration at 13 h / concentration at 24 h / concentration at 36 h / concentration at 48 h / concentration at 72 h / concentration at 96 h / concentration at 144 h / concentration at 168 h: human, plasma, po, Plasma concentration of amlodipine, reference (R) tablets; for concentration at 0 h: nominal time 0 h; for concentration at 1 h: nominal time 1 h; for concentration at 2 h: nominal time 2 h; for concentration at 3 h: nominal time 3 h; for concentration at 4 h: nominal time 4 h; for concentration at 5 h: nominal time 5 h; for concentration at 6 h: nominal time 6 h; for concentration at 7 h: nominal time 7 h; for concentration at 8 h: nominal time 8 h; for concentration at 9 h: nominal time 9 h; for concentration at 10 h: nominal time 10 h; for concentration at 11 h: nominal time 11 h; for concentration at 12 h: nominal time 12 h; for concentration at 13 h: nominal time 13 h; for concentration at 24 h: nominal time 24 h; for concentration at 36 h: nominal time 36 h; for concentration at 48 h: nominal time 48 h; for concentration at 72 h: nominal time 72 h; for concentration at 96 h: nominal time 96 h; for concentration at 144 h: nominal time 144 h; for concentration at 168 h: nominal time 168 h
[3] = amlodipine, intra-subject coefficient of variation

CCOC(=O)C1=C(COCCN)NC(C)=C(C(=O)OC)C1c1ccccc1Cl (centres unmarked) [amlodipine]
Tmax (clinical): ~6 h
Absorption [1]: almost completely absorbed
Intra-CV (%) of AUC0-t [2, 3]: 9.9%
Intra-CV (%) of AUC0-∞ [2, 3]: 10.5%
Intra-CV (%) of Cmax [2, 3]: 9.7%
concentration at 0 h ([2]; Max, maximum over subjects): 0 ng/mL
concentration at 1 h ([2]; Max, maximum over subjects): 2.24 ng/mL
concentration at 2 h ([2]; Max, maximum over subjects): 2.57 ng/mL
concentration at 3 h ([2]; Max, maximum over subjects): 3.08 ng/mL
concentration at 4 h ([2]; Max, maximum over subjects): 2.45 ng/mL
concentration at 5 h ([2]; Max, maximum over subjects): 2.98 ng/mL
concentration at 6 h ([2]; Max, maximum over subjects): 4.18 ng/mL
concentration at 7 h ([2]; Max, maximum over subjects): 2.76 ng/mL
concentration at 8 h ([2]; Max, maximum over subjects): 3.48 ng/mL
concentration at 9 h ([2]; Max, maximum over subjects): 3.04 ng/mL
concentration at 10 h ([2]; Max, maximum over subjects): 2.86 ng/mL
concentration at 11 h ([2]; Max, maximum over subjects): 2.92 ng/mL
concentration at 12 h ([2]; Max, maximum over subjects): 2.98 ng/mL
concentration at 13 h ([2]; Max, maximum over subjects): 2.75 ng/mL
concentration at 24 h ([2]; Max, maximum over subjects): 2.45 ng/mL
concentration at 36 h ([2]; Max, maximum over subjects): 1.96 ng/mL
concentration at 48 h ([2]; Max, maximum over subjects): 1.69 ng/mL
concentration at 72 h ([2]; Max, maximum over subjects): 1.21 ng/mL
concentration at 96 h ([2]; Max, maximum over subjects): 1.11 ng/mL
concentration at 144 h ([2]; Max, maximum over subjects): 0.574 ng/mL
concentration at 168 h ([2]; Max, maximum over subjects): 0.455 ng/mL
concentration at 0 h ([2]; Mean, mean of subjects): 0 ng/mL
concentration at 1 h ([2]; Mean, mean of subjects): 0.686 ng/mL
concentration at 2 h ([2]; Mean, mean of subjects): 1.24 ng/mL
concentration at 3 h ([2]; Mean, mean of subjects): 1.51 ng/mL
concentration at 4 h ([2]; Mean, mean of subjects): 1.6 ng/mL
concentration at 5 h ([2]; Mean, mean of subjects): 2.03 ng/mL
concentration at 6 h ([2]; Mean, mean of subjects): 2.16 ng/mL
concentration at 7 h ([2]; Mean, mean of subjects): 2.04 ng/mL
concentration at 8 h ([2]; Mean, mean of subjects): 2.08 ng/mL
concentration at 9 h ([2]; Mean, mean of subjects): 1.96 ng/mL
concentration at 10 h ([2]; Mean, mean of subjects): 1.85 ng/mL
concentration at 11 h ([2]; Mean, mean of subjects): 1.77 ng/mL
concentration at 12 h ([2]; Mean, mean of subjects): 1.74 ng/mL
concentration at 13 h ([2]; Mean, mean of subjects): 1.65 ng/mL
concentration at 24 h ([2]; Mean, mean of subjects): 1.41 ng/mL
concentration at 36 h ([2]; Mean, mean of subjects): 1.13 ng/mL
concentration at 48 h ([2]; Mean, mean of subjects): 0.928 ng/mL
concentration at 72 h ([2]; Mean, mean of subjects): 0.64 ng/mL
concentration at 96 h ([2]; Mean, mean of subjects): 0.446 ng/mL
concentration at 144 h ([2]; Mean, mean of subjects): 0.2 ng/mL
concentration at 168 h ([2]; Mean, mean of subjects): 0.137 ng/mL
concentration at 0 h ([2]; Min, minimum over subjects): 0 ng/mL
concentration at 1 h ([2]; Min, minimum over subjects): 0.26 ng/mL
concentration at 2 h ([2]; Min, minimum over subjects): 0.452 ng/mL
concentration at 3 h ([2]; Min, minimum over subjects): 0.598 ng/mL
concentration at 4 h ([2]; Min, minimum over subjects): 0.834 ng/mL
concentration at 5 h ([2]; Min, minimum over subjects): 1.26 ng/mL
concentration at 6 h ([2]; Min, minimum over subjects): 1.14 ng/mL
concentration at 7 h ([2]; Min, minimum over subjects): 1.03 ng/mL
concentration at 8 h ([2]; Min, minimum over subjects): 0.988 ng/mL
concentration at 9 h ([2]; Min, minimum over subjects): 0.918 ng/mL
concentration at 10 h ([2]; Min, minimum over subjects): 0.806 ng/mL
concentration at 11 h ([2]; Min, minimum over subjects): 0.82 ng/mL
concentration at 12 h ([2]; Min, minimum over subjects): 0.829 ng/mL
concentration at 13 h ([2]; Min, minimum over subjects): 0.812 ng/mL
concentration at 24 h ([2]; Min, minimum over subjects): 0.603 ng/mL
concentration at 36 h ([2]; Min, minimum over subjects): 0.482 ng/mL
concentration at 48 h ([2]; Min, minimum over subjects): 0.391 ng/mL
concentration at 72 h ([2]; Min, minimum over subjects): 0.226 ng/mL
concentration at 96 h ([2]; Min, minimum over subjects): 0.123 ng/mL
concentration at 144 h ([2]; Min, minimum over subjects): 0 ng/mL
concentration at 168 h ([2]; Min, minimum over subjects): 0 ng/mL
